Among the test systems are A498; A549; ACHN; BT-549; COLO 205; LOX IMVI; M14; MOLT-4; NCI-H460; OVCAR-4; OVCAR-8; PC-3; RPMI-8226; SF-268; SK-MEL-28; SN12C; SNB-19; U-251; UACC-257; MDA-N.
What all share (experiment): DTP human tumour cell line panel, 48 h

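Grown in 96-well plates, cells were treated for 48 hours with each compound at five concentrations. Insufficient inhibition: endpoint recorded as highest concentration tested. GI50: concentration for 50% inhibition of growth.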 Calls of active or inactive are those of the source. Cut-off read from the data, not from the text of the source: active = GI50 up to about 1.1 µM and inactive = higher. Bounds are passed on as bounds.

Regarding `Cc1ccc(S(=O)(=O)c2ccc([N+](=O)[O-])o2)cc1`, the GI50 with A498 was 17 µM (inactive); with A549, 8.81 µM (inactive); in the test with ACHN it was 1.59 µM (inactive); with BT-549, 2.51 µM (inactive); in the test with COLO 205, 0.916 µM (active); in the test with LOX IMVI, 1.14 µM (inactive). The GI50 is 1.83 µM (inactive) with M14; 0.337 µM (active) in the test on MOLT-4; 14.1 µM (inactive) in the test on NCI-H460; 2.27 µM (inactive) in the test on OVCAR-4; 0.906 µM (active) in the test on OVCAR-8; 1.6 µM (inactive) in the test on PC-3. Moreover, the GI50 was 1.65 µM (inactive) in the test with RPMI-8226; 11.1 µM (inactive) in the test with SF-268; 1.98 µM (inactive) in the test with SK-MEL-28; 7.73 µM (inactive) with SN12C; 20.1 µM (inactive) in the test with SNB-19; 5.48 µM (inactive) in the test on U-251. Besides, the GI50 in the test on UACC-257 was 1.87 µM (inactive).

On to `CCCc1cn2c(/C=N/NC(=N)N)c(-c3cc([N+](=O)[O-])c(Cl)cc3Cl)nc2s1`, for which the GI50 with A498 is 1.55 µM (inactive); in the test on A549, 1.48 µM (inactive); in the test on ACHN, 1.77 µM (inactive); in the test with BT-549 it was 2.15 µM (inactive); in the test with COLO 205, 1.48 µM (inactive); with LOX IMVI, 1.41 µM (inactive). The GI50 is 1.74 µM (inactive) with M14; 0.17 µM (active) with MOLT-4; 1.72 µM (inactive) in the test on NCI-H460; 1.46 µM (inactive) with OVCAR-4; 1.54 µM (inactive) in the test on OVCAR-8; 1.67 µM (inactive) in the test with PC-3. For the same compound, the GI50 in the test on RPMI-8226 is 1.32 µM (inactive); with SF-268 it was 1.69 µM (inactive); with SN12C, 1.77 µM (inactive); in the test on SNB-19, 1.48 µM (inactive); in the test on U-251, 1.58 µM (inactive); in the test on UACC-257, 1.66 µM (inactive).

Turning to `Nc1ncnc2c1ncn2CC(OCP(=O)(O)O)Oc1ccccc1` (stereo not given), the GI50 in the test on A498, with A549, in the test with ACHN, with COLO 205, in the test on LOX IMVI and in the test on M14 was > 100 µM (inactive) each time. The GI50 in the test on MDA-N, in the test with OVCAR-4, with PC-3, in the test on RPMI-8226, in the test on SF-268 and in the test on SK-MEL-28 was > 100 µM (inactive) each time. The GI50 in the test on SN12C, in the test with SNB-19, with U-251 and in the test on UACC-257 was > 100 µM (inactive) in each case.

For `O=C(c1ccccc1)N1C(=S)N(c2ccccn2)C(=N/c2ccccc2)/C1=N\c1ccccc1`, the GI50 in the test with A498 is > 66.5 µM (inactive); in the test on A549 it was 27.5 µM (inactive); in the test with ACHN, 9.93 µM (inactive); in the test on COLO 205, 28.8 µM (inactive); with LOX IMVI, 12.4 µM (inactive); with M14 it was 55.6 µM (inactive). In addition, the GI50 in the test with MDA-N is 11.4 µM (inactive); with MOLT-4, 4.01 µM (inactive); in the test on NCI-H460, 29.5 µM (inactive); with OVCAR-4, 10.5 µM (inactive); in the test on OVCAR-8 it was 8.28 µM (inactive); in the test with PC-3, 9.84 µM (inactive). The GI50 in the test with RPMI-8226 was 7.91 µM (inactive); with SF-268 it was 24.9 µM (inactive); with SK-MEL-28, 22.3 µM (inactive); in the test on SN12C, 31.5 µM (inactive); with SNB-19, 25.5 µM (inactive); in the test with U-251 it was 8.11 µM (inactive). Also, in the test with UACC-257, the GI50 is 23 µM (inactive).

Take `C(/Cc1ccc2c(c1)OCO2)=N\N=C1NCCCCN1`: the GI50 in the test with A498 was 24.8 µM (inactive); in the test on A549 it was > 100 µM (inactive); in the test on ACHN, > 100 µM (inactive); in the test with BT-549, > 100 µM (inactive); in the test with COLO 205, > 100 µM (inactive); in the test with LOX IMVI, 55.5 µM (inactive). Also, the GI50 in the test on M14 is 16.4 µM (inactive); in the test with MOLT-4 it was 48.4 µM (inactive); with NCI-H460, 45.8 µM (inactive); with OVCAR-4, > 100 µM (inactive); in the test on OVCAR-8 it was > 100 µM (inactive); with PC-3, 86.1 µM (inactive). The GI50 with RPMI-8226 was 48.4 µM (inactive); in the test on SF-268, > 100 µM (inactive); with SK-MEL-28, > 100 µM (inactive); in the test with SN12C it was 73.6 µM (inactive); with SNB-19, > 100 µM (inactive); in the test with U-251, 86.3 µM (inactive). Further, the GI50 in the test with UACC-257 is > 100 µM (inactive).

For `CCCc1cc(O)c2c(C)c3[nH]c4ccc(Cl)cc4c3c(C)c2n1`, the GI50 was 1.49 µM (inactive) in the test on A498; 2.24 µM (inactive) in the test on A549; 1.91 µM (inactive) in the test on ACHN; 2 µM (inactive) in the test with COLO 205; 1.82 µM (inactive) with LOX IMVI; 3.1 µM (inactive) with M14. Further, the GI50 in the test with MDA-N is 1.9 µM (inactive); in the test on MOLT-4, 2.81 µM (inactive); with NCI-H460, 1.97 µM (inactive); in the test on OVCAR-4, 1.86 µM (inactive); in the test with OVCAR-8 it was 2.55 µM (inactive); in the test with PC-3 it was 4.06 µM (inactive). Also, the GI50 in the test with SF-268 is 6.71 µM (inactive); in the test on SK-MEL-28, 1.46 µM (inactive); in the test with SN12C, 2.36 µM (inactive); in the test on SNB-19 it was 2.55 µM (inactive); in the test on U-251 it was 1.69 µM (inactive); in the test with UACC-257, 2 µM (inactive).

For `COc1cccc2c1C(=O)c1c(O)c3c(c(O)c1C2=O)C[C@@](O)(/C(C)=N/NC(=O)c1ccc(Cl)c(Cl)c1)C[C@@H]3OC1CC(N)C(O)C(C)O1` (stereo not given in full), the GI50 in the test with A498 was 1.22 µM (inactive); in the test with A549, 0.186 µM (active); with ACHN it was 0.0364 µM (active); in the test on BT-549 it was 0.505 µM (active); in the test with COLO 205 it was 0.176 µM (active); in the test on LOX IMVI, 0.0249 µM (active). For the same compound, the GI50 in the test with M14 is 0.148 µM (active); in the test on MOLT-4, < 0.01 µM (active); in the test on NCI-H460, 0.067 µM (active); in the test on OVCAR-4 it was 0.0668 µM (active); in the test with OVCAR-8 it was 0.292 µM (active); with PC-3, 0.411 µM (active). In addition, the GI50 in the test on RPMI-8226 was 0.0269 µM (active); in the test on SF-268, 0.296 µM (active); with SK-MEL-28 it was 0.0676 µM (active); in the test with SN12C, 0.101 µM (active); with SNB-19, 0.0792 µM (active); in the test with U-251, 0.0589 µM (active). Moreover, the concentration for 50% growth inhibition (GI50) with UACC-257 is 0.188 µM (active).

In the case of `Nc1nc(NCC2(CO)CC2)cc(=O)[nH]1`, the GI50 in the test on A498, with A549, in the test with ACHN, in the test on BT-549, with COLO 205 and in the test on LOX IMVI was > 100 µM (inactive) throughout. In addition, the GI50 with M14, with MOLT-4, in the test on NCI-H460, in the test with OVCAR-4, with OVCAR-8 and with PC-3 was > 100 µM (inactive) throughout. Besides, the GI50 with RPMI-8226, with SF-268, in the test with SK-MEL-28, with SN12C, in the test on SNB-19 and with U-251 was > 100 µM (inactive) each time. Moreover, the GI50 with UACC-257 is > 100 µM (inactive).

For `O=C1NC(c2cccc3ccccc23)Nc2ccc(Cl)cc21` (stereo not given), the GI50 with A498 was 0.00143 µM (active); with A549, 0.00509 µM (active); in the test on ACHN, 0.00268 µM (active); in the test with COLO 205 it was 0.00239 µM (active); in the test with LOX IMVI, 0.000482 µM (active); with M14, 0.00115 µM (active). For the same compound, the concentration for 50% growth inhibition (GI50) with MDA-N was < 0.0001 µM (active); with MOLT-4 it was 0.00174 µM (active); in the test with NCI-H460, 0.0038 µM (active); in the test on OVCAR-4 it was 0.327 µM (active); in the test on OVCAR-8 it was 0.00935 µM (active); in the test on PC-3 it was 0.00165 µM (active). Also, the GI50 in the test on SF-268 is 0.0035 µM (active); with SK-MEL-28, < 0.01 µM (active); in the test with SN12C it was 0.00828 µM (active); in the test with SNB-19 it was 0.00189 µM (active); in the test on U-251 it was 0.000977 µM (active).

With `COc1ccc(/C=C2\N=C3Sc4c([nH]cnc4=O)N3C2=O)cc1`, the GI50 with A498, in the test on A549, in the test on ACHN, with COLO 205, in the test on LOX IMVI and with M14 was > 100 µM (inactive) in each case. In addition, the GI50 in the test with MDA-N, in the test with MOLT-4, with OVCAR-4, in the test on OVCAR-8, in the test with PC-3 and in the test on RPMI-8226 was > 100 µM (inactive) throughout. Also, the GI50 in the test on SF-268, in the test with SK-MEL-28, with SN12C, in the test on SNB-19, with U-251 and in the test on UACC-257 was > 100 µM (inactive) each time.

In the case of `O=c1cc(-c2ccccc2)[nH]c2cc(F)c(F)cc12`, the 50% growth inhibitory concentration (GI50) with A549 was 0.463 µM (active); in the test with ACHN it was 0.676 µM (active); in the test on COLO 205 it was 0.661 µM (active); in the test on LOX IMVI it was 0.494 µM (active); with M14 it was 0.392 µM (active); in the test with MDA-N, 0.0764 µM (active). Further, the 50% growth inhibitory concentration (GI50) was 0.438 µM (active) in the test on MOLT-4; 0.565 µM (active) in the test on NCI-H460; > 51.4 µM (inactive) in the test with OVCAR-4; 0.824 µM (active) in the test with OVCAR-8; 0.222 µM (active) in the test with PC-3; 0.309 µM (active) in the test on RPMI-8226. The GI50 is 1.45 µM (inactive) in the test on SF-268; 1.72 µM (inactive) in the test with SK-MEL-28; 1.97 µM (inactive) in the test with SN12C; 0.718 µM (active) with SNB-19; 0.692 µM (active) with U-251; 0.498 µM (active) in the test on UACC-257.

These data come from ChEMBL document CHEMBL1201862, “PubChem BioAssay data set” (2004).
